Earlier results in patent US6852743B1, “Preventives for the recurrence of cerebrovascular failure and agents for ameliorating troubles following cerebrovascular failure and inhibiting progress thereof” (Takeda Pharmaceutical Company Limited, priority 1999, dated 2005).

Tests used:
[1] = tested on: insulin sensitivity; conditions: clinically; Iimura O. et al., Am J Hypertens 8, 353-357, 1995
[2] = tested on: automatic regulation of cerebral blood flow; conditions: literature report, Vraamark T et al., J Hypertens 13:755-761, 1995

Structure (SMILES) | insulin sensitivity [1] | effect on the lower limit of automatic regulation [2]
CCOc1nc2cccc(C(=O)OC(C)OC(=O)OC3CCCCC3)c2n1Cc1ccc(-c2ccccc2-c2nnn[nH]2)cc1 (centres unmarked) [Candesartan cilexetil, 1-(cyclohexyloxycarbonyloxy)ethyl 2-ethoxy-1-[[2′-(1H-tetrazole-5-yl)biphenyl-4-yl]methyl]benzimidazole-7-carboxylate] | improve insulin sensitivity clinically | 
CCOc1nc2cccc(C(=O)O)c2n1Cc1ccc(-c2ccccc2-c2nnn[nH]2)cc1 [Candesartan, 2-ethoxy-1-[[2′-(1H-tetrazole-5-yl)biphenyl-4-yl]methyl]benzimidazol-7-carboxylic acid] |  | can deviate the lower limit of automatic regulation leftward (toward lower blood pressure level)
